Experimental data published in patent US20120289432A1, “PI3K MODULATORS, RHO KINASE MODULATORS AND METHODS OF IDENTIFYING AND USING SAME” (Corning Incorporated, priority 2009, published 2012).
Entries after “also recorded” stand apart in the source; their conditions may differ.

What was measured:
Format in all cases: cell-based, human
A549 cells [1] = test: Label-free RWG (Epic) biosensor DMR assay, agonism mode, A549 cells; conditions: primary profile
Experimental: (§1) Cells were typically grown using ˜1 to 2×10^4 cells per well at passage 3 to 15 suspended in 50 μl of the corresponding culture medium in the biosensor microplate, and were cultured at 37° C. under air/5% CO2 for ˜1 day. Except for A431 which underwent one day culture followed by one starvation in serum free medium, all other cells were directly assayed without starvation. The confluency for all cells at the time of assays was ˜95% to 100%.
(§2) Epic® beta version wavelength interrogation system (Corning Inc., Corning, N.Y.) was used for whole cell sensing. This system consists of a temperature-control unit, an optical detection unit, and an on-board liquid handling unit with robotics. The detection unit is centered on integrated fiber optics, and enables kinetic measures of cellular responses with a time interval of ˜15 sec.
(§3) For biosensor cellular assays, molecule solutions were made by diluting the stored concentrated solutions with the HBSS (1× Hanks balanced salt solution, plus 20 mM Hepes, pH 7.1), and transferred into a 384 well polypropylene molecule storage plate to prepare a molecule source plate. Both molecule and marker source plates were made separately when a two-step assay was performed. In parallel, the cells were washed twice with the HBSS and maintained in 30 μl of the HBSS to prepare a cell assay plate. Both the cell assay plate and the molecule and marker source plate(s) were then incubated in the hotel of the reader system. After ˜1 hr of incubation the baseline wavelengths of all biosensors in the cell assay microplate were recorded and normalized to zero. Afterwards, a 2 to 10 minute continuous recording was carried out to establish a baseline, and to ensure that the cells reached a steady state. Cellular responses were then triggered by pipetting 10 μl of the marker solutions into the cell assay plate using the on-board liquid handler.
(§4) All studies were carried out at a controlled temperature (28° C.). At least two independent sets of experiments, each with at least three replicates, were performed.

HepG2 cells [2] = test: Label-free RWG biosensor DMR assay, agonism mode, HepG2 cells; conditions: primary profile
Experimental: as §1, §2
(§5) For biosensor cellular assays, molecule solutions were made by diluting the stored concentrated solutions with the HBSS (1× Hanks balanced salt solution, plus 20 mM Hepes, pH 7.1), and transferred into a 384 well polypropylene molecule storage plate to prepare a molecule source plate. […] Both the cell assay plate and the molecule and marker source plate(s) were then incubated in the hotel of the reader system. After ˜1 hr of incubation the baseline wavelengths of all biosensors in the cell assay microplate were recorded and normalized to zero. […]

HT-29 cells = test: Label-free RWG biosensor DMR assay, agonism mode, HT-29 cells; conditions: primary profile
Experimental: as §1, §2, §5

A549 cells [3] = test: DMR modulation of marker-induced responses (two-step assay) in A549 cells; conditions: for modulation of the pinacidil response in A549 cells: compound pretreatment ~1 hr (10 micromolar), then pinacidil 10 micromolar
Experimental: The index was generated after normalizing each marker-induced DMR signal in the presence of the inhibitor to its corresponding signal in the absence of the inhibitor. The percentage of modulation for each marker by the inhibitor was plotted as a function of the marker. As shown from left to right in a sequential order, the DMR events used for the basis of the modulation percentage calculation are: the N-DMR (50 min after stimulation) for pinacidil in A549, the P-DMR (50 min after stimulation) for forskolin in A549, the early P-DMR event (˜10 min after histamine stimulation) and the late P-DMR event (˜30 min after histamine stimulation) for histamine in A549, and the early P-DMR event (˜5 min after EGF stimulation) and the subsequent N-DMR event (˜30 min after EGF stimulation) for EGF in A431 cells. In all cases, the amplitudes of respective DMR events were used as the basis to calculate the percentages of modulation by the PI3K inhibitors. The same procedure was used to generate FIGS. 8 to 14.
as §1, §3
To study the influence of molecules on a marker-induced response, a second stimulation with the marker at a fixed dose (typically at EC80 or EC100) was applied. The resonant wavelengths of all biosensors in the microplate were normalized again to establish a second baseline, right before the second stimulation. The two stimulations were usually separated by ˜1 hr.
as §4

HepG2 cells [4] = test: DMR modulation of the ODN2006-induced response in HepG2 cells; conditions: inhibitor 10 micromolar, ODN2006 500 nM
Experimental: as §1
as §3, with “Cellular responses were then triggered by pipetting 10 μl of the marker solutions into the cell assay plate using the on-board liquid handler.” left out

A549 cells [5] = test: Desensitization of pretreated A549 cells to stimulation with ROCK inhibitor Y-27632; conditions: pretreatment 10 micromolar ~1 hour, then Y-27632 at EC100 (10 micromolar)
Source text: FIG. 19 The optical biosensor DMR signals of human lung cancer cell line A549 in response to a well-known Rho kinase inhibitor […] (10 micromolar) in the absence (“buffer”) and presence of two compounds (the Rho kinase inhibitor Y27632, and another Rho kinase inhibitor “compound”). Either of these two inhibitors at 10 micromolar was used to pretreat the A549 cells for ˜1 hr, before the stimulation with Y27632. The desensitization of cells to the second stimulation with Y27632 is an indicator that the compound used for the pretreatment of the cells is a Rho kinase inhibitor.
For biosensor cellular assays, molecule solutions were made by diluting the stored concentrated solutions with the HBSS (1× Hanks balanced salt solution, plus 20 mM Hepes, pH 7.1), and transferred into a 384 well polypropylene molecule storage plate to prepare a molecule source plate. Both molecule and marker source plates were made separately when a two-step assay was performed. In parallel, the cells were washed twice with the HBSS and maintained in 30 μl of the HBSS to prepare a cell assay plate. Both the cell assay plate and the molecule and marker source plate(s) were then incubated in the hotel of the reader system. After ˜1 hr of incubation the baseline wavelengths of all biosensors in the cell assay microplate were recorded and normalized to zero. […]

C[C@@H](N)[C@H]1CC[C@H](C(=O)Nc2ccncc2)CC1 [Y-27632]
DMR (biosensor) signal of the compound in A549 cells (A549 cells [1]): detectable, and dose-dependent biosensor signals; also recorded: characteristic negative DMR signal
DMR (biosensor) signal of the compound in HepG2 cells (HepG2 cells [2]): net-zero DMR signal
DMR (biosensor) signal of the compound in HT-29 cells (HT-29 cells): detectable, and dose-dependent biosensor signals
modulation of the pinacidil response in A549 cells (A549 cells [3]): complete or significant attenuation; also recorded: attenuated
modulation of the pinacidil response in A549 cells (A549 cells [3]; listed as Y027632): dose-dependently attenuate
modulation of the pinacidil response in A549 cells (A549 cells [3]; listed as Y27632): fully attenuated; also recorded: almost completely attenuated
modulation of the forskolin response (P-DMR) in A549 cells (A549 cells [3]; inhibitor 10 micromolar, forskolin 16 micromolar): potentiated
modulation of the histamine response (early and late P-DMR) in A549 cells (A549 cells [3]; inhibitor 10 micromolar, histamine 10 micromolar): potentiated
modulation of the PMA response in A549 cells (A549 cells [3]; pretreatment 10 micromolar): potentiated
modulation of the SLIGKV response in A549 cells (A549 cells [3]; pretreatment 10 micromolar): potentiated
modulation of the poly(IC) response in A549 cells (A549 cells [3]; pretreatment 10 micromolar): potentiated
modulation of the ODN2006 DMR signal in HepG2 cells (HepG2 cells [4]): potentiated
desensitization of A549 cells to second stimulation with Y-27632 (A549 cells [5]): significantly caused the cells desensitize
